“Also recorded” adds a separate entry of the source.
Tests used:
[1] = test system: human neutrophil; test: Neutrophil adhesion, crawling and trans-migration out of the endothelial channel, HRV-16 infected Airway-on-Chip; type: cell-based; conditions: HRV-16 24 hpi
Text: Once recruited to the endothelium, neutrophil movement can be recorded and extravasation monitored as N (number) of spots vs. time (e.g. up to 300-600 seconds).
Thus, migratory cell potential, as extravasation, is identified in graphs below each of these micrographs, FIG. 15A and FIG. 15B, showing the number of white spots (N spots) counted over time for each treatment. For HRV-16 infection alone, the number of spots decreases as the cells move into the cell layer, see, FIG. 15C. […] Extravasation in general refers to the movement of white blood cells into the tissues surrounding them (e.g. leukocyte extravasation), also known as diapedesis.

[2] = test system: human neutrophil; test: Neutrophil recruitment/attachment in Airway-on-Chip model of acute asthma exacerbation (HRV-16 infection, IL-13 stimulation); type: cell-based
Method: In this embodiment, an exemplary respiratory virus, e.g., Rhinovirus, was added to the upper channel of the chip, IL-13 was used to stimulate cells, and neutrophils were added to the lower channel, see, FIG. 14A.
See, FIG. 14B and FIG. 14C.
HRV-16 is represented as small green dots in the upper channel while neutrophil cells (also described as polymorphonuclear leukocytes (PMN)) are represented as large purple spots in the lower channel. […] Treatments included HRV-16 alone infected cells, IL-13 alone treated cells, HRV-16 and (+) IL-13 treated cells, HRV-16+CXCR2in (inhibitor) treated cells, and HRV-16+IL-13+CXCR2in. […] FIG. 14C is a graphical comparison showing PMN (neutrophil) cells counts as % of untreated cells and cells treated with combinations shown for IL-13, HRV, and CXCR2 (in) treatments. Quantification of neutrophil recruitment (** p<0.01; **** p<0.001).

[3] = test system: goblet cells; test: IL-13 induced goblet cell hyperplasia in Airway-on-Chip (MUC5AC staining); type: cell-based, human
Text: As an exemplary immuno-modulatory compound, addition of IL-13 to an Airway-on-Chip induced changes in epithelial cell layers in the upper channel with an air interface and endothelial cells in the lower channel under media fluid flow conditions are shown. It was discovered that IL-13 added to this embodiment of Airway-on-Chip effects both the epithelial cell layer in the upper channel with an air interface and the endothelial cells in the lower channel under media flow conditions. FIG. 9A is a schematic illustration showing IL-13 in the context of an Airway-on-Chip, where IL-13 effects both epithelial cells in the upper channel with an air interface and endothelial cells in the lower channel under flow (left). […] IL-13 is added to the endothelial channel at an exemplary 100 ng/ml for an exemplary 7 days.
This hyperplasia effect can be inhibited by Tofacitinib, an inhibitor of the JAK/STAT pathway (Janus Kinase (JAK) and Signal Transducer and Activator of Transcription (STAT)).
Creation of a Th2 microenvironment through IL-13 stimulation induces an asthma-like phenotype in the Airway Chip. Exacerbation is then triggered by infecting with human rhinovirus 16. […]

[4] = test system: host cells of Airway On-Chip; test: TUNEL apoptosis staining on Airway On-Chip; type: cell-based, human; conditions: 3 μM for 3 h at 37° C.; positive control
Method: One embodiment of an Airway On-Chip was infected as described above for 2 hours and then treated 50 μg/ml tetracycline for 24 h (top and bottom channels under flow) for 24 h in order to limit bacterial replication (to avoid over-replication and cell lifting). Using this methodology, we performed longer infections on an airway chip and avoided cell death at 24 h. At 24 h, chips were fixed with 4% paraformaldehyde for 15 minutes and subsequently permeabilized with 0.25% triton in PBS. Apoptosis staining was performed following the Click-iT™ Plus TUNEL Assay for In Situ Apoptosis Detection, Alexa Fluor 647 assay: Click-iT™ Plus TUNEL Assay, Thermo Fisher Scientific Inc., 6 Nov. 2017.
The TUNEL assay is based on the incorporation of modified dUTPs by the enzyme terminal deoxynucleotidyl transferase (TdT) at the 3′-OH ends of fragmented DNA, a hallmark as well as the ultimate determinate of apoptosis. ClickiT™ Plus TUNEL assay with the Alexa Fluor™ 647 dye was utilized to detect the fragment DNA (purple), nuclei were labelled with DAPI.
Staurosporin, a prototypical ATP-competitive kinase inhibitor, was used as a positive control in this assay. […] As an additional positive control, chips were treated with 1 unit of DNAse I for 30 minutes at room temperature to induce TUNEL positive DNA strand breaks.

[5] = test system: endothelial cells; test: IL-13 effects on endothelial cells of Airway-on-Chip (adhesion molecule gene and protein expression); type: cell-based, human
Text: Induced gene expression for adhesion molecules was also observed after IL-13 treatment, FIG. 9C. Examples of IL-13 induced Selectins (P and E) and ICAM-1 (Intercellular Adhesion Molecule 1) and VCAM-1 (vascular cell adhesion molecule-1). Doerr, “The condition-dependent proteome.” Nat Methods. 2016 Febuary; 13(2):117.
Other compounds tested included Interleukin alpha (IL1A), Interleukin beta (IL1B), Interleukin-6 (IL6), Interleukin-8 (IL8), The chemokine (C-C motif) ligand 2 (CCL2), C-C Motif Chemokine Receptor 4 (CCR4), Protein Tyrosine Phosphatase, Receptor Type C (PTPRC), Intercellular Adhesion Molecule 1 (ICAM1), Selectin P (SELP), Selectin E (SELE), Prostaglandin-Endoperoxide Synthase 2 (PTGS2), Transforming Growth Factor Beta 1 (TGFB1), SMAD Family Member 7 (SMAD7), Complement C3 (C3), Angiotensin I Converting Enzyme (ACE), cluster of differentiation 34: CD34 antigen: CD34 molecule (CD34) and Nuclear Factor Of Activated T-Cells 4 (NFATC4).
In one embodiment, an asthma phenotype was generated using IL-13 stimulation. This stimulation led to the activation of human endothelium at 48 hours of treatment. IL-13 induces vessel (endothelial cell) wall priming as part of recruitment of immune cells. […] IL-13 100 ng/mL (right panels) vs. no treatment controls (left panels) VE-Cadherin (red), ICAM-1 (green) in the upper panels. VCAM-1 (red) VE-Cadherin (green). […]

[6] = test system: HRV-16; test: HRV-16 one step growth curves in infected Airway chips treated with IL-13 or not; type: cell-based, human rhinovirus 16; conditions: HRV-16 MOI=2
Method: An exemplary virus, Human rhinovirus 16 (HRV16: A16 or type 16, referring to a single stranded RNA virus), in capsid form, was added at a multiplicity of infection of 2 to the upper channel and incubated at 33° C. for 3 hours. Infected chips (n=3) were washed apically (upper channel) daily and replicating virus in the wash fluid was quantified. HRV16 Titer (Log 10 TCID 50/mL) vs time post infection (hours). TCID50 refers to a tissue culture infectious dose, which will infect 50% if the cells in a monolayer challenged with the viral inoculum.

[7] = test system: IFN-λ1, IP-10/CXCL10, IL-6 secretion; test: Interferon, chemokine and cytokine secretion after HRV16 infection of Airway Chips; type: cell-based, human
Text: HRV-16-induced interferons, chemokines and pro-inflammatory cytokines profile is altered by IL-13 treatment in the severe asthma chip as shown by high resolution, kinetic profiles of cytokine secretion. These graphs (FIG. 17A-C) show results using a method for identifying secretory phases (i.e. I, II, III, and IV) of essential inflammatory cytokines.
FIG. 17A-C HRV-16-induced interferons, chemokines and pro-inflammatory cytokines profile is altered by IL-13 treatment in one embodiment of a severe asthma on-chip. These exemplary graphs show results from high resolution, kinetic profiles of an IFN Lambda 1 response FIG. 17A; IP-10/CXCL10 FIG. 17B; IL-6 response FIG. 17C; following HRV16 infection. A severe asthma on-chip was stimulated with IL-13 (lower red line and squares) while a duplicate chip was not stimulated with IL-13 (upper blue line and circles). IL-13 treatment was over 72 hours post infection. Data represent mean±SEM of cells from three to four different donors, with one or two biological replicates (chips) per donor.
Charts show IFN-λ1 (pg/mL) and IP-10/CXCL10 (pg/mL) measured in apical and basal secretions collected at 24, 48 and 72 h post HRV16 infection comparing control, IL-13 alone, HRV-16 alone and combined treatments.
Thus, IL-13 may delay or prevent IL-6-driven resolution of HRV-induced inflammation. Charts (i.e. readouts) show IL-6 (pg/mL) and IL-8 (pg/mL) measured in apical and basal secretions collected at 24, 48 and 72 h post HRV16 infection comparing control, IL-13 alone, HRV-16 alone and combined treatments.

[8] = test system: Human Airway Epithelium; test: Cilia beating frequency on-chip; type: cell-based; conditions: IL-13 stimulation
[9] = test system: P. aeruginosa; type: cell-based, Pseudomonas aeruginosa; conditions: lower concentrations
Method: Mature small airway chips at air-liquid interface (ALI) were gently washed with PBS to remove excess mucus. Cells were inoculated with 2-3×10^6 colony forming units (CFUs) in Hank's balanced salt solution (HBSS) for 2 hours. At the end of the incubation, the inoculum was removed and the cells were washed 3× with phosphate buffer saline (PBS) to remove any nonadherent bacteria. PBS was removed and cells were incubated at ALI up to 24 hours (h) under flow in the bottom channel but not in the top channel.
After an exemplary on-chip infection protocol, including removing nonadherent bacteria, a test compound was immediately added to the top (apical) and bottom (basal) channels then cells are cultured under flow using media containing the anti-microbial compound, for 24 hours. Exemplary test compound amounts are at least 0.1 μg/ml, up to 50 μg/ml, up to 100 μg/ml, up to 500 μg/ml. In one embodiment, an exemplary test compound is a drug Imipenem.
More specifically, in one embodiment of an Airway on-chip, duplicate chips were infected with PA 5919 WT or PA 5890 Mutant as described herein. Then, Imipenem was added to apical and basolateral fluids (cell media) for treatment with Imipenem at 50, 100 and 500 μg/ml for 24 hours with at least one chip without Imipenem. […] Lysates were serially diluted for CFU quantification. […]
Assay readouts: Viability of extracellular bacteria (apical sampling). […]

In the case of `CC[C@@H](Nc1c(Nc2cccc(C(=O)N(C)C)c2O)c(=O)c1=O)c1ccc(C)o1` [MK-7123], the “adhesion of neutrophil cells on endothelial cell surfaces” value ([1]; 10 microliters of CXCR2 inhibitor added to the lower channel, vs no treatment) was “reduced adhesion of neutrophil cells”, the “number of spots (neutrophil cells, N spots) counted over time (extravasation)” value ([1]; up to 600 seconds) was “remains about the same” and the “neutrophil mobility (crawling) and trans-migration” value ([1]; severe asthma chip, 10 μM) was “reduces neutrophil mobility and limits trans-migration”. The “inhibition of relevant physiological responses (neutrophil recruitment)” value ([2]; CXCR2 antagonist 10 μM) was “greater than 90%”, the “neutrophil attachment in the lower channel” value ([2]; HRV-16 infections, with or without IL-13 stimulation) was “reduced neutrophil attachment” and the neutrophil recruitment ([2]; MK-7123 10 microM, three stimulation conditions (HRV-16, IL-13, IL-13+HRV)) was “inhibits neutrophil recruitment; also recorded: significantly reduced neutrophil recruitment”. For the same compound, the “neutrophil attachment in the lower channel” value ([2]; cells stimulated with IL-13 alone) was “increased attachment”.

For `C[C@@H]1CCN(C(=O)CC#N)C[C@@H]1N(C)c1ncnc2[nH]ccc12` [Tofacitinib], the “effect on IL-13 induced goblet cell hyperplasia” value ([3]; IL-13+Tofacitinib) was “inhibited”.

In the case of `CN[C@@H]1C[C@H]2O[C@@](C)([C@@H]1OC)n1c3ccccc3c3c4c(c5c6ccccc6n2c5c31)C(=O)NC4` [Staurosporin], the “apoptotic cell numbers (TUNEL)” value [4] was “increased apoptotic cell numbers”.

With “IL-13: TH2 cytokine used to stimulate an asthma-like phenotype on-chip” the “adhesion molecule (ICAM-1, VCAM-1, VE-Cadherin) protein expression, immunostaining” value ([5]; IL-13 100 ng/mL, 48 hours) was “increased adhesion molecule expression”, the “adhesion protein gene expression in endothelial cells (fold over non-treated)” value ([5]; IL-13 treatment) was “up regulates adhesion proteins” and the “HRV infectivity (HRV-16 growth)” value [6] was “does not alter HRV infectivity”. For the same compound, the “epithelial interferon response after HRV-16 infection” value ([7]; apical/basal secretions, 24-72 h post infection) was “impairs epithelial interferon response; also recorded: reduces HRV16-induced interferon response”, the “kinetic profile of IFN Lambda 1, CXCL10 and IL-6 secretion” value ([7]; over 3 days (72 hours) post HRV16 infection) was “inhibits secretion of IFN Lambda 1, CXCL10 and IL-6” and the “HRV16-induced IL-6 secretion” value ([7]; prior stimulation with IL-13, 24, 48, 72 h post infection) was “inhibited”. For the same compound, the goblet cell hyperplasia ([3]; IL-13 100 ng/ml, 7 days, endothelial channel) was “induced goblet cell hyperplasia”, the neutrophil recruitment ([2]; IL-13+HRV vs either alone) was “additive increase in neutrophil recruitment” and the neutrophil recruitment ([2]; IL-13-treated chips vs non-stimulated chips) was “increased neutrophil recruitment”. For the same compound, the cilia beating frequency [8] was “reduces cilia beating frequency”.

With `C[C@@H](O)[C@H]1C(=O)N2C(C(=O)O)=C(SCCN=CN)C[C@H]12` [Imipenem] the “permeability of airway cells to imipenem” value [9] was “impermeable”.

— patent US11542476B2, “Advanced pulmonary models” (EMULATE, INC., priority 2017, dated 2023)
